Laboratory results from ChEMBL document CHEMBL5154863, “Design and synthesis of quinolinium-based derivatives targeting FtsZ for antibacterial evaluation and mechanistic study” (Eur J Med Chem, 2022).

What was measured:
Assay type in all cases: functional
Conditions in all cases: time 20-24 hrs
[1] = tested on: Staphylococcus epidermidis; assay: Antibacterial activity against Staphylococcus epidermidis ATCC 12228 assessed as inhibition of bacterial growth incubated for 20 to 24 hrs by broth micro dilution method
[2] = tested on: Escherichia coli; assay: Antibacterial activity against Escherichia coli ATCC 25922 assessed as inhibition of bacterial growth incubated for 20 to 24 hrs by broth micro dilution method
[3] = tested on: Staphylococcus aureus; assay: Antibacterial activity against methicillin-resistant Staphylococcus aureus ATCC 43300 assessed as inhibition of bacterial growth incubated for 20 to 24 hrs by broth micro dilution method
[4] = tested on: Enterococcus faecalis; assay: Antibacterial activity against Enterococcus faecalis ATCC 29212 assessed as inhibition of bacterial growth incubated for 20 to 24 hrs by broth micro dilution method
[5] = tested on: Acinetobacter baumannii; assay: Antibacterial activity against multi-drug resistant Acinetobacter baumannii ATCC 19606 assessed as inhibition of bacterial growth incubated for 20 to 24 hrs by broth micro dilution method
[6] = tested on: Enterococcus faecium; assay: Antibacterial activity against vancomycin resistant Enterococcus faecium ATCC 700221 assessed as inhibition of bacterial growth incubated for 20 to 24 hrs by broth micro dilution method
[7] = tested on: Staphylococcus aureus; assay: Antibacterial activity against vancomycin-intermediate Staphylococcus aureus Mu50 assessed as inhibition of bacterial growth incubated for 20 to 24 hrs by broth micro dilution method
[8] = tested on: Staphylococcus aureus; assay: Antibacterial activity against methicillin-resistant Staphylococcus aureus ATCC 33592 assessed as inhibition of bacterial growth incubated for 20 to 24 hrs by broth micro dilution method
[9] = tested on: Staphylococcus aureus; assay: Antibacterial activity against methicillin-resistant Staphylococcus aureus ATCC BAA-1720 assessed as inhibition of bacterial growth incubated for 20 to 24 hrs by broth micro dilution method
[10] = tested on: Escherichia coli; assay: Antibacterial activity against Escherichia coli ATCC 8739 assessed as inhibition of bacterial growth incubated for 20 to 24 hrs by broth micro dilution method
[11] = tested on: Staphylococcus aureus; assay: Antibacterial activity against Staphylococcus aureus ATCC 29213 assessed as inhibition of bacterial growth incubated for 20 to 24 hrs by broth micro dilution method
[12] = tested on: Bacillus subtilis; assay: Antibacterial activity against Bacillus subtilis CMCC (B) 63501 assessed as inhibition of bacterial growth incubated for 20 to 24 hrs by broth micro dilution method
[13] = tested on: Pseudomonas aeruginosa; assay: Antibacterial activity against […] Pseudomonas aeruginosa ATCC 27853 assessed as inhibition of bacterial growth incubated for 20 to 24 hrs by broth micro dilution method
[14] = tested on: Escherichia coli; assay: Antibacterial activity against NDM-1 expressing Escherichia coli ATCC BAA2469 assessed as inhibition of bacterial growth incubated for 20 to 24 hrs by broth micro dilution method
[15] = tested on: Klebsiella pneumoniae; assay: Antibacterial activity against NDM-1 expressing Klebsiella pneumoniae ATCC BAA 2470 assessed as inhibition of bacterial growth incubated for 20 to 24 hrs by broth micro dilution method
[16] = tested on: Enterococcus faecium; assay: Antibacterial activity against Enterococcus faecium ATCC 49624 assessed as inhibition of bacterial growth incubated for 20 to 24 hrs by broth micro dilution method
[17] = tested on: Enterococcus faecium; assay: Antibacterial activity against vancomycin-resistant Enterococcus faecium clinical isolate assessed as inhibition of bacterial growth incubated for 20 to 24 hrs by broth micro dilution method

| Compound | MIC [1] [µg/mL] | MIC [2] [µg/mL] | MIC [3] [µg/mL] | MIC [4] [µg/mL] | MIC [5] [µg/mL] | MIC [6] [µg/mL] | MIC [7] [µg/mL] | MIC [8] [µg/mL] | MIC [9] [µg/mL] | MIC [10] [µg/mL] | MIC [11] [µg/mL] | MIC [12] [µg/mL] | MIC [13] [µg/mL] | MIC [14] [µg/mL] | MIC [15] [µg/mL] | MIC [16] [µg/mL] | MIC [17] [µg/mL] |
| --- | --- | --- | --- | --- | --- | --- | --- | --- | --- | --- | --- | --- | --- | --- | --- | --- | --- |
| CCCCNc1cc(/C=C/c2ccc(N(C)C)cc2)[n+](C)c2ccccc12.[I-] | 2 | 32 | 4 | 2 | > 64 | 4 | 4 | 2 | 2 | > 64 | 4 | 8 | > 64 | > 64 | > 64 | 16 | 8 |
| CN(C)c1ccc(/C=C/c2cc(N3CCOCC3)c3ccccc3[n+]2C)cc1.[I-] | 16 | > 64 | 64 | > 64 | > 64 | 16 | 32 | 64 | 64 | > 64 | 32 | 32 | > 64 | > 64 | > 64 | 8 | 32 |
| CN(C)c1ccc(/C=C/c2cc(NCCCc3ccccc3)[n+](C)c3ccccc23)cc1.[I-] | 4 | > 64 | 4 | 4 | > 64 | 4 | 4 | 4 | 4 | > 64 | 4 | 2 | > 64 | > 64 | > 64 | 4 | 4 |
| CCCNc1cc(/C=C/c2ccc(N(C)C)cc2)c2ccccc2[n+]1C.[I-] | 32 | > 64 | 32 | 64 | > 64 | 16 | 32 | > 64 | 16 | > 64 | > 64 | 16 | > 64 | > 64 | > 64 | 32 | 16 |
| CN(C)c1ccc(/C=C/c2cc(N3CCCC3)[n+](C)c3ccccc23)cc1.[I-] | 2 | 16 | 16 | 64 | > 64 | 8 | 8 | 16 | 16 | 32 | 4 | 16 | > 64 | 64 | > 64 | 16 | 16 |
| CCCCNc1cc(/C=C/c2ccc(N(C)C)cc2)c2ccccc2[n+]1C.[I-] | 16 | > 64 | 16 | 32 | > 64 | 8 | 16 | 32 | 16 | > 64 | 32 | 8 | > 64 | > 64 | > 64 | 16 | 8 |
| CCCCCNc1cc(/C=C/c2ccc(N(C)C)cc2)c2ccccc2[n+]1C.[I-] | 8 | > 64 | 8 | 16 | > 64 | 8 | 8 | 8 | 8 | > 64 | 8 | 8 | > 64 | > 64 | > 64 | 8 | 8 |
| CN(C)c1ccc(/C=C/c2cc(NCCCO)c3ccccc3[n+]2C)cc1.[I-] | 8 | > 64 | 64 | 16 | > 64 | 16 | 16 | 32 | 64 | > 64 | 32 | > 64 | > 64 | > 64 | > 64 | 8 | > 64 |
| CN(C)c1ccc(/C=C/c2cc(NCCCc3ccccc3)c3ccccc3[n+]2C)cc1.[I-] | 2 | > 64 | 2 | 8 | > 64 | 4 | 4 | 2 | 2 | > 64 | 2 | 4 | > 64 | > 64 | > 64 | 4 | 4 |
| CCCNc1cc(/C=C/c2ccc(N(C)C)cc2)[n+](C)c2ccccc12.[I-] | 2 | 32 | 8 | 4 | > 64 | 4 | 8 | 4 | 4 | > 64 | 8 | 16 | > 64 | > 64 | > 64 | 16 | 8 |
